For the assay, the system named is idiopathic/treatment-resistant chronic cough patients. Description: double-blind randomized placebo-controlled crossover trial in idiopathic/treatment-resistant chronic cough. Conditions: 2 weeks. The class given is in vivo, human. The method, then:
Thus, the inventors explored the role of P2X3 receptors in the sensitization of vagal pathways mediating the cough reflex leading to chronic cough (CC). A study was performed to investigate the efficacy of oral administration of Compound 16 in reducing daytime cough in idiopathic/treatment-resistant chronic cough.
In this study, a double-blind randomized placebo-controlled crossover trial, 24 subjects (19 women, mean age 55 yrs) were randomized into a double blind, placebo-controlled, 2-period, crossover study, of Compound 16, 600 mg bd. Cough was assessed using an ambulatory sound monitoring system at baseline and after 2 weeks of treatment; primary endpoint, daytime objective cough frequency (coughs/hr) (VitaloJAK™); secondary endpoints, cough severity and urge to cough (UTC) visual analogue scales (VAS), global ratings of change and cough quality of life questionnaire (CQLQ).

Molecules are shown by their SMILES.

For `COc1cc(C(C)C)c(Oc2cnc(N)nc2N)cc1S(N)(=O)=O` [Compound 16, 5-(2,4-Diamino-pyrimidin-5-yloxy)-4-isopropyl-2-methoxy-benzenesulfonamide], under “600 mg bd oral, (−2 to −17), p=0.018”, the “CQLQ (cough quality of life questionnaire), mean difference vs. placebo” value is recorded as −9. In addition, the “UTC (urge to cough) VAS, mean difference vs. placebo” value (600 mg bd oral, (−2 to −41), p=0.035) was −21 mm. Besides, the “cough severity VAS, mean difference vs. placebo” value (600 mg bd oral, (−10 to −42), p=0.003) is recorded as −26 mm. Moreover, the “patients who rated an improved cough (global rating of change)” value (600 mg bd oral, compared to 2/22 treated with placebo) is 13/24. Further, the “daytime coughs/hr (daytime objective cough frequency), mean difference vs. placebo” value (Compound 16 600 mg bd oral, 24 subjects, 95% CI −50 to −88, p<0.001) is −75%.

The record behind these values is US10206922B2, “Substituted pyrimidines for treatment of chronic cough, neuronal hypersensitivity underlying chronic cough, neuronal hypersensitivity underlying sub-acute cough and neuronal hypersensitivity underlying acute cough” (Afferent Pharmaceuticals. Inc., priority 2013, dated 2019).
